Results taken from patent publication US20260137703A1, “2-AMINO-PYRIDO[2,3-D]PYRIMIDIN-7(8H)-ONE AND 7-AMINO-1-PYRIMIDO[4,5-D]PYRIMIDIN-2(1 H)-ONE DERIVATIVES AS EGFR INHIBITORS FOR THE TREATMENT OF CANCER” (Cancer Research Technology Limited, priority 2022, published 2026).

Columns and labels:
[1] = biological target: T1, Phospho-EGFR (Tyr1068) in H1975 cells (Homo sapiens, UniProt P00533, L858R/T790M); assay: HTRF pEGFR/total EGFR in H1975 cells; format: cell-based; conditions: ratio pEGFR/total EGFR, compound 3 hours
T1 construct: host or cells: H1975
In short: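 Readout is the phospho-EGFR (Tyr1068) to total EGFR HTRF ratio, expressed relative to 0 μM control. Adhered H1975 cells were exposed to compound for 3 hours at 0.1% DMSO, duplicate wells, then lysed for 30 min at room temperature before two-wavelength fluorescence reading.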

[2] = biological target: T2, Phospho-EGFR (Tyr1068) in H1975 C797S cells (CRISPR-edited EGFR C797S) (Homo sapiens, UniProt P00533, C797S/L858R/T790M); assay: HTRF pEGFR/total EGFR in H1975 C797S cells; format: cell-based; conditions: ratio pEGFR/total EGFR, compound 3 hours
T2 construct: host or cells: H1975 C797S (CRISPR-edited)
In short: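 Readout is the HTRF-measured Tyr1068 phospho-EGFR to total EGFR ratio, normalised to the 0 μM control as percent. Preceding this, CRISPR-edited H1975 C797S cells, plated 24 h earlier, were exposed 3 h to duplicate compound doses in medium with 0.1% DMSO, then lysed on a shaker.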

[3] = biological target: T3, Phospho-EGFR (Tyr1068) in A431 cells (Homo sapiens, UniProt P00533); assay: HTRF pEGFR/total EGFR in A431 cells with EGF stimulation; format: cell-based; conditions: ratio pEGFR/total EGFR, compound 2.5 hours then 100 ng/ml EGF 30 mins
T3 construct: endogenous in cells; host or cells: A431
In short: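 Values are pEGFR(Tyr1068)/total EGFR HTRF ratios (665/620 nm) given as percent of the 0 μM control. Adhered A431 cells (20,000 per well, 24 h) had 2.5 h compound pretreatment in 0.1% DMSO, then 30 min of 100 ng/ml EGF before lysis.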

[4] = biological target: CtermHisTag-mEGFR Wild type (Homo sapiens, UniProt P00533); assay: biochemical
Sequence of CtermHisTag-mEGFR Wild type (P00533 whole entry): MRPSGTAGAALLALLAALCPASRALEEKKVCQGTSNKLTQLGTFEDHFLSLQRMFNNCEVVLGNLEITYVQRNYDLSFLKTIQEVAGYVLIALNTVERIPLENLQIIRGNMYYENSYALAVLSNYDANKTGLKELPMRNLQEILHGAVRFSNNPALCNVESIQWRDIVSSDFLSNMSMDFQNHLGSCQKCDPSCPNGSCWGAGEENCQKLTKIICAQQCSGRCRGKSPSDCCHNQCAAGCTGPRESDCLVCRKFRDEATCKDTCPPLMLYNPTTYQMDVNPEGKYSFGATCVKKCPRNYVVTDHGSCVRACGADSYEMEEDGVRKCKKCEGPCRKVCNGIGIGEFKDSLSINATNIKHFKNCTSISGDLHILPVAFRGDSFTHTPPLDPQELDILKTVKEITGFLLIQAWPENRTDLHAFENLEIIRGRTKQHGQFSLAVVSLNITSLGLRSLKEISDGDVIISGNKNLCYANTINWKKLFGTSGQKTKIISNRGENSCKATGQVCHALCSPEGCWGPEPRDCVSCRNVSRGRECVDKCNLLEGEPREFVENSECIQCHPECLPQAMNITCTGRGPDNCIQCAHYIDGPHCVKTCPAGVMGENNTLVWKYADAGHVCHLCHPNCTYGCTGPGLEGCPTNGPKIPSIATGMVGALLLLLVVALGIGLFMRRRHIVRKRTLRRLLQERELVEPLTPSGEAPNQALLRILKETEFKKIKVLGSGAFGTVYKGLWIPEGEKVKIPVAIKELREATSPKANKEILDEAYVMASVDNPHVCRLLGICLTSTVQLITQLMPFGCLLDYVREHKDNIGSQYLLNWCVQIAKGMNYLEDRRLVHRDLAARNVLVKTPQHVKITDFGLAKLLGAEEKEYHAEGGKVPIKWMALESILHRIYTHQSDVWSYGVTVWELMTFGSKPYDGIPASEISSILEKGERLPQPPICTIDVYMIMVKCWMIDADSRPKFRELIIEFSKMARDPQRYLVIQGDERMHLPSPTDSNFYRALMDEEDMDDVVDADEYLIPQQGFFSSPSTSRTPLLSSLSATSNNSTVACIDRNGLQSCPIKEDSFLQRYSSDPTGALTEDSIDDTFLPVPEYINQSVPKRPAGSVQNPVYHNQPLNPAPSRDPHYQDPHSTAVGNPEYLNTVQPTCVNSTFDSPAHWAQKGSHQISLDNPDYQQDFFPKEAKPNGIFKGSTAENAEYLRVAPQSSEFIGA

T2 sequence (P00533 25-1210 T790M/C797S/L858R): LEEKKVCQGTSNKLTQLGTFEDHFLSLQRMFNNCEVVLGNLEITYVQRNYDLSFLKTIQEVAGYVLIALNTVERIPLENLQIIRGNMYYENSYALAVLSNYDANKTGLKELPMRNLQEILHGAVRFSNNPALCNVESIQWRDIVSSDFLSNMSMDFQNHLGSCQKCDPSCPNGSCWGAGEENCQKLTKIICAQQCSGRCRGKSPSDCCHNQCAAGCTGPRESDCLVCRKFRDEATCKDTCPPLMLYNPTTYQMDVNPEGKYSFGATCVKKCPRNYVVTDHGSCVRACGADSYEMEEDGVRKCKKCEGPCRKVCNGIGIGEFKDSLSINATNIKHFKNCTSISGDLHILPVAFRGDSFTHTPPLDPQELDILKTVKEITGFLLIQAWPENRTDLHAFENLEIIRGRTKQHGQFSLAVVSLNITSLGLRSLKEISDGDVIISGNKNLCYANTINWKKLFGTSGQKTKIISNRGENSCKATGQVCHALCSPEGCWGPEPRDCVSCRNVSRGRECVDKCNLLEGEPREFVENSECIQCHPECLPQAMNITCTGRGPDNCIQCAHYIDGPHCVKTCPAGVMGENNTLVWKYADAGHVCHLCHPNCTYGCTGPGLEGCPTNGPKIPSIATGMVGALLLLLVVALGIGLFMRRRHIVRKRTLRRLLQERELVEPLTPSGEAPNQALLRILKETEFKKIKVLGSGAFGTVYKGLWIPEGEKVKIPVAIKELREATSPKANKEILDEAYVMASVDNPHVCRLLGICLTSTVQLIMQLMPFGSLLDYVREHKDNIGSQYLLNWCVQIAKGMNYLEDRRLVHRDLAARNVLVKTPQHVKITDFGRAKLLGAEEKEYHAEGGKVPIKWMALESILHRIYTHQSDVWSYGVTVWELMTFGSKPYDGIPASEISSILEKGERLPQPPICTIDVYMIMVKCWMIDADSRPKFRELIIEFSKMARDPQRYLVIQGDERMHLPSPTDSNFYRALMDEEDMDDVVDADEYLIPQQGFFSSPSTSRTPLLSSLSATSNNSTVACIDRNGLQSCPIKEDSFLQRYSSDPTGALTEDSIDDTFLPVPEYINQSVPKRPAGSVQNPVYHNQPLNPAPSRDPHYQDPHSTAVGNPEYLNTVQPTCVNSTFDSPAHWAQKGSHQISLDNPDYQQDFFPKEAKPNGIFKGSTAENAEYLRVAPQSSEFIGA
T1 sequence (P00533 25-1210 T790M/L858R): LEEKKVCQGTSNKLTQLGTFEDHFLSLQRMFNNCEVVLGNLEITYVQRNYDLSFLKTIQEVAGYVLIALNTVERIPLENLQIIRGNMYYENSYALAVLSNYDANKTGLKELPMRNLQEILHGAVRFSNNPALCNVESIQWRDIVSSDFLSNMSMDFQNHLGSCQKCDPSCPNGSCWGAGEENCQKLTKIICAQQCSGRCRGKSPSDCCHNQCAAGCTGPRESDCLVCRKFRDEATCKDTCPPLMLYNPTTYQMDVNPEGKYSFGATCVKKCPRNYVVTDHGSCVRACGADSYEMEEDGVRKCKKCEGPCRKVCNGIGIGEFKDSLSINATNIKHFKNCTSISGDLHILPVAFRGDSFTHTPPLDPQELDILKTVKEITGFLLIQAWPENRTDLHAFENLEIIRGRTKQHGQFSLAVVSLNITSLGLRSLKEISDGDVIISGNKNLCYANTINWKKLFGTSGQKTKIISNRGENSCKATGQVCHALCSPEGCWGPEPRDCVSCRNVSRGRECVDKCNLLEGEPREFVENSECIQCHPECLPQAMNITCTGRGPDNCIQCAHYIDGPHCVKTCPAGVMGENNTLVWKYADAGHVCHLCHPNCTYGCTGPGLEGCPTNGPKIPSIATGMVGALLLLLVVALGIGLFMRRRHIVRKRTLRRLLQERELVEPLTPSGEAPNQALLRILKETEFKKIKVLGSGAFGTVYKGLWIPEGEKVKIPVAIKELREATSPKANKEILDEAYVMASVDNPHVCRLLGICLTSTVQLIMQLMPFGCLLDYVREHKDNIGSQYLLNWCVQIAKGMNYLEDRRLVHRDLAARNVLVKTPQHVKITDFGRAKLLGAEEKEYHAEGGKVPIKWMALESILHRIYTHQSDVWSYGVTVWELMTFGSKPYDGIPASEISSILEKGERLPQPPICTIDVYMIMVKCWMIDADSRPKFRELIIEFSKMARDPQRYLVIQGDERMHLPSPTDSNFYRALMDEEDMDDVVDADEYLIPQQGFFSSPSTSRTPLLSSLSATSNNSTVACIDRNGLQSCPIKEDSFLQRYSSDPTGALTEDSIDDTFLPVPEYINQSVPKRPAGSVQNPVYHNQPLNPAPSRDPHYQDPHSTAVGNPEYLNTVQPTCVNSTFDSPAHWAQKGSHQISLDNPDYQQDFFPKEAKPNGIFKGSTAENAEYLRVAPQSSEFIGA
T3 sequence (P00533 25-1210): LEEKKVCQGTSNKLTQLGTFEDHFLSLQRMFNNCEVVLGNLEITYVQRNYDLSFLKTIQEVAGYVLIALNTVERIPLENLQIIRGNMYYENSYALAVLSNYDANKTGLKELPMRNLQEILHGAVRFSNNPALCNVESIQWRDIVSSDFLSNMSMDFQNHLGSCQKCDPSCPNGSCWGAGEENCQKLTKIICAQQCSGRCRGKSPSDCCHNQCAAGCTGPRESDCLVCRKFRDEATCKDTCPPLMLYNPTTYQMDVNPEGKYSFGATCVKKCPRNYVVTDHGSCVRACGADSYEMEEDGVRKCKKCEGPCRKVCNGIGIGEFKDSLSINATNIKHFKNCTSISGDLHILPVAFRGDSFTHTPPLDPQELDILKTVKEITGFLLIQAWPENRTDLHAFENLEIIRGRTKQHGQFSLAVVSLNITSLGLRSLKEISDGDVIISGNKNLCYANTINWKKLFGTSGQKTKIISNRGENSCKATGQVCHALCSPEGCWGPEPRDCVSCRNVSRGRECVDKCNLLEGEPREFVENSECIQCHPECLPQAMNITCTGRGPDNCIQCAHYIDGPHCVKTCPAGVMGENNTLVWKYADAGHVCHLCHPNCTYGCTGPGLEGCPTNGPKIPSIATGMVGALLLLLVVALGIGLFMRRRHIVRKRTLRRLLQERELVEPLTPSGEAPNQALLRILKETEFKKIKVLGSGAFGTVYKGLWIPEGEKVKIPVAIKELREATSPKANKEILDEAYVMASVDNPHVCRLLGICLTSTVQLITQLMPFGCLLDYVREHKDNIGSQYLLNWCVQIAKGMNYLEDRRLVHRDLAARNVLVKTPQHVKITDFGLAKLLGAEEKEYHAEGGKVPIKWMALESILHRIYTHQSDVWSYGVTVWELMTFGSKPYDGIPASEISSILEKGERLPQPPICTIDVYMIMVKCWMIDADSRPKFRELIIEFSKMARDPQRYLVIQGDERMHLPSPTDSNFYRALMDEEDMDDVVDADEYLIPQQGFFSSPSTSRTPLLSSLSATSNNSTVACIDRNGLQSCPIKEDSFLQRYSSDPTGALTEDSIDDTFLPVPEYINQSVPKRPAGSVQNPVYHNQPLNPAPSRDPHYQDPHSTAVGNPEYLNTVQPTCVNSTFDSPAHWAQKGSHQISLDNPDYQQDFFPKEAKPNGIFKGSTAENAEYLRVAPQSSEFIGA

Row | IC50 [1] [nM] | IC50 [2] [nM] | IC50 [3] [nM] | IC50 [4] [nM] | Structure (SMILES)
1 | < 500 | < 500 | 500 to 1000 | < 1000 | C#Cc1cc(=O)n2c3nc(ncc13)Nc1ccc(N3CCN(C)CC3)c(c1)OCCCC2 [Example 189, 1^5-ethynyl-3^4-(4-methylpiperazin-1-yl)-1^7,1^8-dihydro-4-oxa-2-aza-1(2,8)-pyrido[2,3-d]pyrimidina-3(1,3)-benzenacyclooctaphan-1^7-one]
2 | 1000 to 3000 | 1000 to 3000 | > 3000 | > 10000 | C#Cc1c(C)c(=O)n2c3nc(ncc13)Nc1cccc(c1)OC/C=C\C2 [Example 190, (Z)-1^5-ethynyl-1^6-methyl-1^7,1^8-dihydro-4-oxa-2-aza-1(2,8)-pyrido[2,3-d]pyrimidina-3(1,3)-benzenacyclooctaphan-6-en-1^7-one]
3 | > 3000 | > 3000 | > 3000 | 1000 to 10000 | C#Cc1c(C)c(=O)n2c3nc(ncc13)Nc1cccc(c1)OCCCC2 [Example 191, 1^5-ethynyl-1^6-methyl-1^7,1^8-dihydro-4-oxa-2-aza-1(2,8)-pyrido[2,3-d]pyrimidina-3(1,3)-benzenacyclooctaphan-1^7-one]
4 | 500 to 1000 | 500 to 1000 | > 3000 | > 10000 | C#Cc1cc(=O)n2c3nc(ncc13)Nc1cccc(c1)OC[C@H]1CC[C@H](C1)C2 [Example 192, (5^1R,5^3S)-3^5-ethynyl-3^7,3^8-dihydro-7-oxa-2-aza-3(2,8)-pyrido[2,3-d]pyrimidina-1(1,3)-benzena-5(1,3)-cyclopentanacycloheptaphan-3^7-one]
5 | < 500 | 500 to 1000 | > 3000 | > 10000 | C#Cc1cc(=O)n2c3nc(ncc13)Nc1cccc(c1)OCCCC2 [Example 193, 1^5-Ethynyl-1^7,1^8-dihydro-4-oxa-2-aza-1(2,8)-pyrido[2,3-d]pyrimidina-3(1,3)-benzenacyclooctaphan-1^7-one]
6 | < 500 | < 500 | < 500 | < 1000 | C#Cc1c(C)c(=O)n2c3nc(ncc13)Nc1ccc(N3CCN(C)CC3)c(c1)OCCCC2 [Example 194, 1^5-Ethynyl-1^6-methyl-3^4-(4-methylpiperazin-1-yl)-1^7,1^8-dihydro-4-oxa-2-aza-1(2,8)-pyrido [2,3-d]pyrimidina-3(1,3)-benzenacyclooctaphan-1^7-one]
7 | 500 to 1000 | > 3000 | > 3000 | < 1000 | C#Cc1cc(=O)n2c3nc(ncc13)Nc1cccc(c1)COC/C=C\C2 [Example 195, (Z)-1^5-ethynyl-1^7,1^8-dihydro-5-oxa-2-aza-1(2,8)-pyrido[2,3-d]pyrimidina-3(1,3)-benzenacyclononaphan-7-en-1^7-one]
8 | > 3000 | > 3000 | > 3000 | > 10000 | C#Cc1cc(=O)n2c3nc(ncc13)Nc1ccc(N3CCN(C)CC3)c(c1)COCCC2 [Example 196, 1^5-Ethynyl-34-(4-methylpiperazin-1-yl)-1^7, 1^8-dihydro-5-oxa-2-aza-1(2,8)-pyrido[2,3-d]pyrimidina-3(1,3)-benzenacyclooctaphan-1^7-one]
9 | 1000 to 3000 | 1000 to 3000 | > 3000 | > 10000 | C#Cc1cc(=O)n2c3nc(ncc13)Nc1ccc(N3CCN(C)CC3)c(c1)CC(=O)NCC2 [Example 197, 1^5-Ethynyl-3^4-(4-methylpiperazin-1-yl)-1^7,1^8-dihydro-2,6-diaza-1(2,8)-pyrido[2,3-d]pyrimidina-3(1,3)-benzenacyclooctaphane-1^7,5-dione]
10 | 500 to 1000 | < 500 | > 3000 | > 10000 | C#Cc1cc(=O)n2c3nc(ncc13)Nc1ccc(N3CCN(C)CC3)c(c1)NCCCC2 [Example 198, 1^5-Ethynyl-3^4-(4-methylpiperazin-1-yl)-1^7, 1^8-dihydro-2,4-diaza-1(2,8)-pyrido[2,3-d]pyrimidina-3(1,3)-benzenacyclooctaphan-1^7-one]
11 | > 3000 | > 3000 | > 3000 | > 10000 | C#Cc1cc(=O)n2c3nc(ncc13)Nc1ccc(N3CCN(C)CC3)c(c1)CNCCC2 [Example 199, 1^5-Ethynyl-3^4-(4-methylpiperazin-1-yl)-1^7,1^8-dihydro-2,5-diaza-1(2,8)-pyrido[2,3-d]pyrimidina-3(1,3)-benzenacyclooctaphan-1^7-one]
12 | < 500 | < 500 | < 500 | < 1000 | C#Cc1cc(=O)n2c3nc(ncc13)Nc1ccc(N3CCN(C)CC3)c(c1)OCCCCC2 [Example 200, 1^5-Ethynyl-34-(4-methylpiperazin-1-yl)-1^7,1^8-dihydro-4-oxa-2-aza-1(2,8)-pyrido[2,3-d]pyrimidina-3(1,3)-benzenacyclononaphan-17-one]
13 | < 500 | 500 to 1000 | > 3000 | < 1000 | C#Cc1cc(=O)[nH]c2nc(Nc3ccc(N4CCN(C)CC4)c(CNC(=O)C=C)c3)ncc12 [Example 201]
14 | > 3000 | > 3000 | > 3000 | < 1000 | C#Cc1cc(=O)n(C2CCCC2)c2nc(Nc3cccc(N(C)[C@H]4C[C@H](CS(C)(=O)=O)C4)c3)ncc12 [Example 205]
15 | > 3000 | > 3000 | > 3000 | < 1000 | C#Cc1cc(=O)n(C2CCCC2)c2nc(Nc3cccc(N(C)[C@H]4CC[C@H](CS(C)(=O)=O)CC4)c3)ncc12 [Example 206]
16 | < 500 | < 500 | 500 to 1000 | < 1000 | C#Cc1cc(=O)n(C)c2nc(Nc3ccc(N4CCN(C)CC4)c(OCCC)c3)ncc12 [Example 207, 5-Ethynyl-8-methyl-2-((4-(4-methylpiperazin-1-yl)-3-propoxyphenyl)amino)pyrido[2,3-d]pyrimidin-7(8H)-one]
17 | < 500 | < 500 | 1000 to 3000 | < 1000 | C#Cc1cc(=O)n(C)c2nc(Nc3ccc(N4CCN(C)CC4)c(OC)c3)ncc12 [Example 208, 5-Ethynyl-2-((3-methoxy-4-(4-methylpiperazin-1-yl)phenyl)amino)-8-methylpyrido[2,3-d]pyrimidin-7(8H)-one]
18 | < 500 | < 500 | < 500 | < 1000 | C#Cc1cc(=O)n(C)c2nc(Nc3ccc(N4CCN(C)CC4)c(OCCC4CCCC4)c3)ncc12 [Example 209, 2-((3-(2-Cyclopentylethoxy)-4-(4-methylpiperazin-1-yl)phenyl)amino)-5-ethynyl-8-methylpyrido[2,3-d]pyrimidin-7(8H)-one]
19 | < 500 | < 500 | > 3000 | < 1000 | C#Cc1cc(=O)n(Cc2ccn(C)n2)c2nc(Nc3ccc(N4CCN(C)CC4)c(OCCC4CCCC4)c3)ncc12 [Example 210, 2-((3-(2-Cyclopentylethoxy)-4-(4-methylpiperazin-1-yl)phenyl)amino)-5-ethynyl-8-((1-methyl-1H-pyrazol-3-yl)methyl)pyrido[2,3-d]pyrimidin-7(8H)-one]
20 | < 500 | < 500 | > 3000 | < 1000 | C#Cc1cc(=O)n(C)c2nc(Nc3ccc(N4CCN(C)CC4)c(OCC4CCCC4)c3)ncc12 [Example 211, 2-((3-(Cyclopentylmethoxy)-4-(4-methylpiperazin-1-yl)phenyl)amino)-5-ethynyl-8-methylpyrido[2,3-d]pyrimidin-7(8H)-one]
21 | < 500 | < 500 | > 3000 | < 1000 | C#Cc1cc(=O)n(C)c2nc(Nc3ccc(N4CCN(C)CC4)c(OCCCC4CCCC4)c3)ncc12 [Example 212, 2-((3-(3-Cyclopentylpropoxy)-4-(4-methylpiperazin-1-yl)phenyl)amino)-5-ethynyl-8-methylpyrido[2,3-d]pyrimidin-7(8H)-one]
22 | < 500 | 500 to 1000 | 1000 to 3000 | < 1000 | C#Cc1cc(=O)n(C)c2nc(Nc3ccc(N4CCN(C)CC4)c(OCCC4CCCCC4)c3)ncc12 [Example 213, 2-((3-(2-Cyclohexylethoxy)-4-(4-methylpiperazin-1-yl)phenyl)amino)-5-ethynyl-8-methylpyrido[2,3-d]pyrimidin-7(8H)-one]
23 | < 500 | < 500 | 1000 to 3000 | < 1000 | C#Cc1cc(=O)n(C)c2nc(Nc3ccc(N4CCN(C)CC4)c(OCCc4ccccc4)c3)ncc12 [Example 214, 5-Ethynyl-8-methyl-2-((4-(4-methylpiperazin-1-yl)-3-phenethoxyphenyl)amino)pyrido[2,3-d]pyrimidin-7(8H)-one]
24 | < 500 | < 500 | 1000 to 3000 | < 1000 | C#Cc1cc(=O)n(C)c2nc(Nc3ccc(N4CCN(C)CC4)c(OC4CCCC4)c3)ncc12 [Example 215, 2-((3-(Cyclopentyloxy)-4-(4-methylpiperazin-1-yl)phenyl)amino)-5-ethynyl-8-methylpyrido[2,3-d]pyrimidin-7(8H)-one]
